Reference: PubChem BioAssay (NCI)
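Values below derive from 48-hour exposures of cells grown in 96-well plates, with endpoints linearly interpolated between the two concentrations bracketing the appropriate inhibition level. GI50 is the concentration that inhibits growth by half. The concentration for full growth arrest is given as TGI.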

Legend:
Assay in all cases: NCI-60 cell line screen, 48 h
[1] = system: 786-0 renal
[2] = system: A498 renal
[3] = system: A549 NSCLC
[4] = system: ACHN renal
[5] = system: BT-549 breast
[6] = system: CAKI-1 renal
[7] = system: COLO 205 colon
[8] = system: DU-145 prostate
[9] = system: EKVX NSCLC
[10] = system: HCC-2998 colon
[11] = system: HCT-116 colon
[12] = system: HCT-15 colon
[13] = system: HL-60(TB) leukemia
[14] = system: HOP-62 NSCLC
[15] = system: HOP-92 NSCLC
[16] = system: HS 578T breast
[17] = system: HT29 colon
[18] = system: IGROV1 ovarian
[19] = system: K-562 leukemia
[20] = system: KM12 colon
[21] = system: LOX IMVI melanoma
[22] = system: M14 melanoma
[23] = system: MALME-3M melanoma
[24] = system: MCF7 breast
[25] = system: MDA-MB-231 breast
[26] = system: MDA-MB-435
[27] = system: MDA-N
[28] = system: MOLT-4 leukemia
[29] = system: NCI-H226 lung
[30] = system: NCI-H460 lung
[31] = system: NCI-H522 lung
[32] = system: NCI/ADR-RES ovarian
[33] = system: OVCAR-3 ovarian
[34] = system: OVCAR-4 ovarian
[35] = system: OVCAR-5 ovarian
[36] = system: OVCAR-8 ovarian
[37] = system: PC-3 prostate
[38] = system: RPMI-8226 leukemia
[39] = system: RXF 393 renal
[40] = system: SF-268 CNS
[41] = system: SF-295 CNS
[42] = system: SF-539 CNS
[43] = system: SK-MEL-2 melanoma
[44] = system: SK-MEL-28 melanoma
[45] = system: SK-MEL-5 melanoma
[46] = system: SK-OV-3 ovarian
[47] = system: SN12C renal
[48] = system: SNB-19 CNS
[49] = system: SNB-75 CNS
[50] = system: SR leukemia
[51] = system: SW-620 colon
[52] = system: T-47D breast
[53] = system: TK-10 renal
[54] = system: U251 CNS
[55] = system: UACC-257 melanoma
[56] = system: UACC-62 melanoma
[57] = system: UO-31 renal
[58] = system: CCRF-CEM leukemia
[59] = system: NCI-H23 lung

CC(=N\O)/C(C)=N/O.CC(=N\O)/C(C)=N/O.CC(=N\O)/C(C)=N/O.CC(=N\O)/C(C)=N/O.[CH3-].[CH3-].[Co].[Co]
GI50 [1]: 18.4 µM | TGI [1]: > 100 µM | GI50 [2]: 32.1 µM | TGI [2]: 77.1 µM | GI50 [3]: 39.5 µM | TGI [3]: > 100 µM | GI50 [4]: 35.4 µM | TGI [4]: > 100 µM | GI50 [5]: 15.1 µM | TGI [5]: 33.8 µM | GI50 [6]: 35.5 µM | TGI [6]: > 100 µM | GI50 [7]: 15 µM | TGI [7]: 29.8 µM | GI50 [8]: 30.9 µM | TGI [8]: > 100 µM | GI50 [9]: 18.7 µM | TGI [9]: 64.9 µM | GI50 [10]: 13.1 µM | TGI [10]: 26.9 µM | GI50 [11]: 7.75 µM | TGI [11]: > 100 µM | GI50 [12]: 24.8 µM | TGI [12]: > 100 µM | GI50 [13]: 17.6 µM | TGI [13]: 50.5 µM | GI50 [14]: 14.7 µM | TGI [14]: 59.2 µM | GI50 [15]: 26.2 µM | TGI [15]: 71.3 µM | GI50 [16]: 22 µM | TGI [16]: 92.5 µM | GI50 [17]: 23 µM | TGI [17]: 82.5 µM | GI50 [18]: 28 µM | TGI [18]: > 100 µM | GI50 [19]: 20.4 µM | TGI [19]: > 100 µM | GI50 [20]: 27 µM | TGI [20]: > 100 µM | GI50 [21]: 14.4 µM | TGI [21]: 31.2 µM | GI50 [22]: 13 µM | TGI [22]: 29.8 µM | GI50 [23]: 16.1 µM | TGI [23]: 30.7 µM | GI50 [24]: 16.9 µM | TGI [24]: > 100 µM | GI50 [25]: 25.3 µM | TGI [25]: 76.7 µM | GI50 [26]: 15 µM | TGI [26]: 39.9 µM | GI50 [27]: 16.3 µM | TGI [27]: > 100 µM | GI50 [28]: 23.8 µM | TGI [28]: 72.4 µM | GI50 [29]: 22.8 µM | TGI [29]: 42.4 µM | GI50 [30]: 14.6 µM | TGI [30]: 40.7 µM | GI50 [31]: 12.2 µM | TGI [31]: 27.8 µM | GI50 [32]: > 100 µM | TGI [32]: > 100 µM | GI50 [33]: 15.9 µM | TGI [33]: 78.8 µM | GI50 [34]: 21.1 µM | TGI [34]: 83.5 µM | GI50 [35]: 28.8 µM | TGI [35]: > 100 µM | GI50 [36]: 27.2 µM | TGI [36]: > 100 µM | GI50 [37]: 21.2 µM | TGI [37]: 63.8 µM | GI50 [38]: 12.8 µM | TGI [38]: 44.2 µM | GI50 [39]: 16.7 µM | TGI [39]: 39.9 µM | GI50 [40]: 21.6 µM | TGI [40]: 72.3 µM | GI50 [41]: 22.8 µM | TGI [41]: 76.5 µM | GI50 [42]: 11.3 µM | TGI [42]: 32.1 µM | GI50 [43]: 11.8 µM | TGI [43]: 27.5 µM | GI50 [44]: 30.2 µM | TGI [44]: 90.9 µM | GI50 [45]: 15.3 µM | TGI [45]: 28.6 µM | GI50 [46]: 34.5 µM | TGI [46]: > 100 µM | GI50 [47]: 21.9 µM | TGI [47]: > 100 µM | GI50 [48]: 17.6 µM | TGI [48]: > 100 µM | GI50 [49]: 15.5 µM | TGI [49]: 38.7 µM | GI50 [50]: 16.2 µM | TGI [50]: 50.1 µM | GI50 [51]: 29.4 µM | TGI [51]: > 100 µM | GI50 [52]: 26.5 µM | TGI [52]: > 100 µM | GI50 [53]: 28.5 µM | TGI [53]: 88.8 µM | GI50 [54]: 11.7 µM | TGI [54]: 24.1 µM | GI50 [55]: 14.8 µM | TGI [55]: 34.9 µM | GI50 [56]: 15.1 µM | TGI [56]: 30.5 µM | GI50 [57]: 19.3 µM | TGI [57]: 48.5 µM

CC(CC(=O)O)(CC(=O)O)c1ccccc1
TGI [1]: > 100 µM | TGI [2]: > 100 µM | TGI [3]: > 100 µM | TGI [4]: > 100 µM | TGI [5]: > 100 µM | TGI [6]: > 100 µM | TGI [58]: > 100 µM | TGI [7]: > 100 µM | TGI [8]: > 100 µM | TGI [9]: > 100 µM | TGI [10]: > 100 µM | TGI [11]: > 100 µM | TGI [12]: > 100 µM | TGI [13]: > 100 µM | TGI [14]: > 100 µM | TGI [15]: > 100 µM | TGI [16]: > 100 µM | TGI [17]: > 100 µM | TGI [18]: > 100 µM | TGI [19]: > 100 µM | TGI [20]: > 100 µM | TGI [21]: > 100 µM | TGI [22]: > 100 µM | TGI [23]: > 100 µM | TGI [24]: > 100 µM | TGI [25]: > 100 µM | TGI [26]: > 100 µM | TGI [27]: > 100 µM | TGI [29]: > 100 µM | TGI [59]: > 100 µM | TGI [30]: > 100 µM | TGI [31]: > 100 µM | TGI [32]: > 100 µM | TGI [33]: > 100 µM | TGI [34]: > 100 µM | TGI [35]: > 100 µM | TGI [36]: > 100 µM | TGI [37]: > 100 µM | TGI [38]: > 100 µM | TGI [39]: > 100 µM | TGI [40]: > 100 µM | TGI [41]: > 100 µM | TGI [43]: > 100 µM | TGI [44]: > 100 µM | TGI [45]: > 100 µM | TGI [46]: > 100 µM | TGI [47]: > 100 µM | TGI [48]: > 100 µM | TGI [49]: > 100 µM | TGI [50]: > 100 µM | TGI [51]: > 100 µM | TGI [52]: > 100 µM | TGI [53]: > 100 µM | TGI [54]: > 100 µM | TGI [55]: > 100 µM | TGI [56]: > 100 µM | TGI [57]: > 100 µM
